We go through 16 molecules from patent US4855415A, “Glucosylmoranoline derivatives” (Nippon Shinyaku Co., Ltd., priority 1986, dated 1989).

SMILES strings stand for the structures. In brackets after ≈: the same amount, converted by molar mass.

Data set [1] deals with maltase. Briefly: alpha-glucosidase inhibiting action in vitro: maltase. It is filed as biochemical, rabbit. Conditions: 50 mM maltose, pH 7.0, 37° C., 30 minutes; for IC50, Maltase: crudely purified enzyme from rabbit small intestine mucosa, average of three measurements (* four); for inhibitory rate, Maltase: ** inhibitory rate at 100 μg/ml. Here is the method:
(§1) MEASUREMENT OF ALPHA-GLUCOSIDASE INHIBITING ACTION IN VITRO
(§2) The activity of the test compounds in inhibiting sucrase and maltase in vitro using a crudely purified enzyme preparation (purified in accordance with a method of Takesue, 1969) obtained from rabbit small intestine mocosa was carried out as follows.
(§3) To 40 microliters of enzyme solution diluted with 0.4M phosphate buffer (pH 7.0) are added 20 microliters of a solution of a test compound in the same buffer and 140 microliters of a solution of a substrate (50 mM sucrose or 50 mM maltose) in the same buffer and the mixture is allowed to react at 37° C. for 30 minutes. The reaction is then stopped by adding 400 microliters of 3N barium hydroxide and 400 microliters of 5% zinc sulfate solution. The amount of the enzyme that is reacted is determined as the amount of glucose contained in 200 microliters of the supernatant liquid of the reaction solution by adding 3 ml of glucoseoxidase reagent (Bioehringer-Mannheim) followed by reacting at ambient temperature for 30 minutes and measuring the absorbance at 420 nm. The concentration of the compound that provides 50% inhibition (IC50) of sucrase and maltase is calculated by expressing the values (as measured by the above method with five different concentrations) as an inhibitory rate (%) to the control.

Data set [2] concerns the target T1, sucrase (Oryctolagus cuniculus, UniProt P07768).
T1 construct: from tissue; host or cells: rabbit small intestine mucosa, crudely purified by a method of Takesue, 1969
Briefly: alpha-glucosidase inhibiting action in vitro: sucrase. It is filed as biochemical, rabbit. The note with it: 50 mM sucrose, pH 7.0, 37° C., 30 minutes; for IC50: IC50, Sucrase, crudely purified enzyme from rabbit small intestine mucosa, average of three measurements (* four). Here is the method: as §1, §2, §3

Data set [3] has as its system increase in blood glucose level. In words: inhibitory action against increase in blood glucose level in rats (oral sucrose load). It is filed as in vivo, SD-Strain rats. The note with it: per os, 1 ml/100 g of sucrose solution (2 g/10 ml) containing 30 mg test compound, 180 minutes after administration. Here is the method: INHIBITORY ACTION AGAINST INCREASE IN BLOOD GLUCOSE LEVEL IN RATS
SD-Strain rats (5 weeks age; male; each group comprising 4 to 5 rats) were fasted overnight and then given 1 ml/100 g body weight of aqueous solution of sucrose (2 g/10 ml) containing 30 mg test compound per os through a stomach tube.
Blood was taken from the tail vein immediately before the administration and at 30, 60, 90, 120 and 180 minutes thereafter and blood glucose levels were measured by a glucose oxidase method (using the assay kit prepared by Boehringer Mannheim).
Based on the values obtained above, a graph was drawn using time as the abscissa and blood glucose level as the ordinate and the area (ΔAUC)under the time-blood glucose increase curve was determined.
A group of rats receiving only water and another group receiving only sucrose were designated as a basal group (group B) and a control group (group C), respectively. Then the inhibitory rate for an increase in ΔAUC 180 minutes after administration of the test compounds (group T) was calculated from the following expression. [formula]

The subject of data set [4] is mice. Briefly: oral toxicity in mice. The note with it: orally, 5 g/kg. It is filed as in vivo. The procedure: The toxicity of the compounds (I) was tested by giving the compound of Example 1 orally to mice (5 g/kg) but there were no deaths.

T1 sequence (P07768 1008-1827 limits assumed): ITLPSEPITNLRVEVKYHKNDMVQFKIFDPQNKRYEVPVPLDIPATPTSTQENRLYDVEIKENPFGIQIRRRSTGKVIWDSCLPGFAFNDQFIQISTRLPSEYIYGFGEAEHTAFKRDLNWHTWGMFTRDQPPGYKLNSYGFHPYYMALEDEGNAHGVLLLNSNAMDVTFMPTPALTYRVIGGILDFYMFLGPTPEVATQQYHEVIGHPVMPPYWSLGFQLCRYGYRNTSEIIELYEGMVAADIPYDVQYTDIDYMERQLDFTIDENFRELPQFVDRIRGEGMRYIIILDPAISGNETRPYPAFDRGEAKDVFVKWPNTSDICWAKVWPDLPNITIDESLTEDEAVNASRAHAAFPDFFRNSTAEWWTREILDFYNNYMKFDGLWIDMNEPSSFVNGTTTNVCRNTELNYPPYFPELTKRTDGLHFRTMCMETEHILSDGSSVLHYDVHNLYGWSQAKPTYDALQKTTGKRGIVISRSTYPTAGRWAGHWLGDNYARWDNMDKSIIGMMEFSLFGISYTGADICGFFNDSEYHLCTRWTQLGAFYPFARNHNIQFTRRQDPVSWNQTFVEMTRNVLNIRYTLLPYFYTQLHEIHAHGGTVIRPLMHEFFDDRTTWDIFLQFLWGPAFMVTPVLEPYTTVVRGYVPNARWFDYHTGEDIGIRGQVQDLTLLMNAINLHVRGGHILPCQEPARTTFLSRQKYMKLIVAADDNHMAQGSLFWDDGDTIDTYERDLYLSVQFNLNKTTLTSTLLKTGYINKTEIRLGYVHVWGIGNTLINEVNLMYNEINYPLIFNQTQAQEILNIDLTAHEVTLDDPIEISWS
T1 sequence (P07768 2-1007 partner limits assumed): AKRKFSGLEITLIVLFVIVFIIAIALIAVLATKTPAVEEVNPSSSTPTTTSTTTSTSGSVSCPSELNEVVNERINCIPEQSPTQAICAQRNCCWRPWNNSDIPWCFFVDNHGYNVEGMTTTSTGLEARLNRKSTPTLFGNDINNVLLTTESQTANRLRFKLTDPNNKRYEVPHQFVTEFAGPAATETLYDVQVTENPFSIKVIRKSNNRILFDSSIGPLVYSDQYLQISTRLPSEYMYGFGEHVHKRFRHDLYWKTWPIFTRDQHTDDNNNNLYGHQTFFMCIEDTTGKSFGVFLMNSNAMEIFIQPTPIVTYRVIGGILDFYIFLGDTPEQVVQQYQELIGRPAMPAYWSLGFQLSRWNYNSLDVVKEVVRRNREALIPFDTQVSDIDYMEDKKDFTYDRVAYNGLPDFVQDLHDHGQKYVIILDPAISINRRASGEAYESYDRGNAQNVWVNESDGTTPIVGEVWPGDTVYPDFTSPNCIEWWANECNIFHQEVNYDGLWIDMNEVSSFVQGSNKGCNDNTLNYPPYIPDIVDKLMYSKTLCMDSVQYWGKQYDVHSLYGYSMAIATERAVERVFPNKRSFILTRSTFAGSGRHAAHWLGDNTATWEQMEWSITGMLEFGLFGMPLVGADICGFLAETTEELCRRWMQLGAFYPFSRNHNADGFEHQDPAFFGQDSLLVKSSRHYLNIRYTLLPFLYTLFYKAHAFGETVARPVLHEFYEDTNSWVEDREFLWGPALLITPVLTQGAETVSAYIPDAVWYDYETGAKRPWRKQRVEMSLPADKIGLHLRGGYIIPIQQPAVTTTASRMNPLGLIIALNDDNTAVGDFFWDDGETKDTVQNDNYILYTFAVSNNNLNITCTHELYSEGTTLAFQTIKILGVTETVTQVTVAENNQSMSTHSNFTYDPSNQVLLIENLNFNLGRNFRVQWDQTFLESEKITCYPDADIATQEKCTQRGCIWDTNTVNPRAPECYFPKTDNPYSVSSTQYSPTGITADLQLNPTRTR

As to `OC[C@@H]1[C@@H](O[C@H]2O[C@H](CO)[C@@H](O)[C@H](O)[C@H]2O)[C@H](O)[C@@H](O)CN1Cc1ccc(Br)cc1` [Example 4, 4-O-alpha-D-Glucopyranosyl-N-(p-bromobenzyl)moranoline], in data set [1], the “IC50, Maltase” value was determined as 34.2 µg/mL (≈ 69.2 µM). The molecule further gave an IC50 in data set [2] of 20.2 µM.

Consider `OC[C@@H]1[C@@H](O[C@H]2O[C@H](CO)[C@@H](O)[C@H](O)[C@H]2O)[C@H](O)[C@@H](O)CN1CC=Cc1ccccc1` [Example 20, 4-O-alpha-D-Glucopyranosyl-N-cinnamylmoranoline p-toluenesulfonate], for which the “Inhibitory Rate (%) for increase in ΔAUC of blood glucose” value in data set [3] turned out to be 76.8%. In data set [1], the “IC50, Maltase” value is 284.9 µg/mL (≈ 645 µM). Also, in data set [2], half-maximal inhibition (IC50) was put at 22 µM.

For the molecule `C=CCN1C[C@H](O)[C@@H](O)[C@H](O[C@H]2O[C@H](CO)[C@@H](O)[C@H](O)[C@H]2O)[C@H]1CO` [Example 13, 4-O-alpha-D-Glucopyranosyl-N-allylmoranoline p-toluenesulfonate], the “Inhibitory Rate (%) for increase in ΔAUC of blood glucose” value in data set [3] turned out to be 77.1%. For the same molecule, the “IC50, Maltase” value in data set [1] is 262.1 µg/mL (≈ 717 µM). This molecule gave a half-maximal inhibitory concentration (IC50) in data set [2] of 62.7 µM.

In the case of `O=C(O)c1ccc(CN2C[C@H](O)[C@@H](O)[C@H](O[C@H]3O[C@H](CO)[C@@H](O)[C@H](O)[C@H]3O)[C@H]2CO)cc1` [Example 12, 4-O-alpha-D-Glucopyranosyl-N-(4-carboxybenzyl)moranoline p-toluenesulfonate], the “Inhibitory Rate (%) for increase in ΔAUC of blood glucose” value in data set [3] is on record as 46.6%. Also, in data set [1], the “inhibitory rate, Maltase” value was determined as 2.0%. 100 µg/mL produced 21.9% inhibition in data set [2] (** inhibitory rate at 100 μg/ml).

As to `CCCCCCN1C[C@H](O)[C@@H](O)[C@H](O[C@H]2O[C@H](CO)[C@@H](O)[C@H](O)[C@H]2O)[C@H]1CO` [Example 5, 4-O-alpha-D-Glucopyranosyl-N-hexylmoranoline p-toluenesulfonate], the “Inhibitory Rate (%) for increase in ΔAUC of blood glucose” value in data set [3] is reported as 94.8%.

In the case of `OC[C@@H]1[C@@H](O[C@H]2O[C@H](CO)[C@@H](O)[C@H](O)[C@H]2O)[C@H](O)[C@@H](O)CN1CC(O)COc1ccccc1` (stereo partly drawn) [Example 22, 4-O-alpha-D-Glucopyranosyl-N-(2-hydroxy-3-phenoxypropyl)moranoline p-toluenesulfonate hydrate], the “Inhibitory Rate (%) for increase in ΔAUC of blood glucose” value in data set [3] came to 48.4%. Moreover, in data set [1], the “IC50, Maltase” value was 40.9 µg/mL. The 50% inhibitory concentration (IC50) in data set [2] is 33.9 µM.

As for `Cc1ccc(CN2C[C@H](O)[C@@H](O)[C@H](O[C@H]3O[C@H](CO)[C@@H](O)[C@H](O)[C@H]3O)[C@H]2CO)cc1` [Example 1, 4-O-alpha-D-Glucopyranosyl-N-(p-methylbenzyl)-moranoline], in data set [3], the “Inhibitory Rate (%) for increase in ΔAUC of blood glucose” value came out at 68.6%. Also, in data set [4], the deaths entry is “no deaths”. The “inhibitory rate, Maltase” value in data set [1] is recorded as 23.5%. Besides, in data set [2], the IC50 was 36.1 µM.

Take `COc1ccc(CN2C[C@H](O)[C@@H](O)[C@H](O[C@H]3O[C@H](CO)[C@@H](O)[C@H](O)[C@H]3O)[C@H]2CO)cc1` [Example 8, 4-O-alpha-D-Glucopyranosyl-N-(p-methoxybenzyl)moranoline]: the “Inhibitory Rate (%) for increase in ΔAUC of blood glucose” value in data set [3] is listed as 54.8%. Moreover, the “IC50, Maltase” value in data set [1] came to 173.0 µg/mL (≈ 388 µM). In data set [2], half-maximal inhibition (IC50) was put at 55.7 µM.

Consider `CCCCCCCCCN1C[C@H](O)[C@@H](O)[C@H](O[C@H]2O[C@H](CO)[C@@H](O)[C@H](O)[C@H]2O)[C@H]1CO` [Example 17, 4-O-alpha-D-Glucopyranosyl-N-nonylmoranoline hydrate], for which, in data set [3], the “Inhibitory Rate (%) for increase in ΔAUC of blood glucose” value stood at 80.2%. Besides, the “IC50, Maltase” value in data set [1] is 77.9 µg/mL. The same molecule had an IC50 in data set [2] of 11.5 µM.

As for `OC[C@@H]1[C@@H](O[C@H]2O[C@H](CO)[C@@H](O)[C@H](O)[C@H]2O)[C@H](O)[C@@H](O)CN1CCc1ccccc1` [Example 19, 4-O-alpha-D-Glucopyranosyl-N-phenethylmoranoline p-toluenesulfonate], the “Inhibitory Rate (%) for increase in ΔAUC of blood glucose” value in data set [3] was found to be 54.0%.

As to `OC[C@@H]1[C@@H](O[C@H]2O[C@H](CO)[C@@H](O)[C@H](O)[C@H]2O)[C@H](O)[C@@H](O)CN1CCOc1ccccc1` [Example 9, 4-O-alpha-D-Glucopyranosyl-N-(beta-phenoxyethyl)moranoline], the “Inhibitory Rate (%) for increase in ΔAUC of blood glucose” value in data set [3] is reported as 64.5%. The “IC50, Maltase” value in data set [1] was 223.6 µg/mL (≈ 502 µM). The molecule further had a 50% inhibitory concentration (IC50) in data set [2] of 14.4 µM.

Regarding `CC(C)=CCN1C[C@H](O)[C@@H](O)[C@H](O[C@H]2O[C@H](CO)[C@@H](O)[C@H](O)[C@H]2O)[C@H]1CO` [Example 3, 4-O-alpha-D-Glucopyranosyl-N-(3-methylcrotyl)moranoline p-toluensulfonate], in data set [3], the “Inhibitory Rate (%) for increase in ΔAUC of blood glucose” value amounted to 73.2%. Moreover, the “IC50, Maltase” value in data set [1] amounted to 248.9 µg/mL (≈ 633 µM). In data set [2], this molecule showed an IC50 of 43.7 µM.

As to `COC(=O)CCCCN1C[C@H](O)[C@@H](O)[C@H](O[C@H]2O[C@H](CO)[C@@H](O)[C@H](O)[C@H]2O)[C@H]1CO` [Example 18, 4-O-alpha-D-Glucopyranosyl-N-(4-methoxycarbonylbutyl)moranoline p-toluenesulfonate], the “Inhibitory Rate (%) for increase in ΔAUC of blood glucose” value in data set [3] is listed as 47.9%. Besides, the “IC50, Maltase” value in data set [1] stood at 44.6 µg/mL (≈ 101 µM). This molecule had a half-inhibitory concentration (IC50) in data set [2] of 45.1 µM.

Turning to `OC[C@@H]1[C@@H](O[C@H]2O[C@H](CO)[C@@H](O)[C@H](O)[C@H]2O)[C@H](O)[C@@H](O)CN1CCCCOc1ccccc1` [Example 14, 4-O-alpha-D-Glucopyranosyl-N-(4-phenoxybutyl)-moranoline], in data set [3], the “Inhibitory Rate (%) for increase in ΔAUC of blood glucose” value stood at 86.9%. For the same molecule, in data set [1], the “IC50, Maltase” value was found to be 168.6 µg/mL (≈ 356 µM). The same molecule had an IC50 in data set [2] of 14.4 µM.

For the molecule `Cc1ccc(CN2C[C@H](O)[C@@H](O)[C@H](O[C@H]3O[C@H](CO)[C@@H](O)[C@H](O)[C@H]3O)[C@H]2CO)cc1` [Example 25, 4-O-alpha-D-Glucopyranosyl-N-(p-methylbenzyl)moranoline p-toluenesulfonate], the “Inhibitory Rate (%) for increase in ΔAUC of blood glucose” value in data set [3] came to 84.4%. For the same molecule, the “IC50, Maltase” value in data set [1] turned out to be 69.2 µg/mL (≈ 161 µM). Moreover, the midpoint of inhibition in data set [2], the IC50, lay at 32.6 µM.

With `OC[C@@H]1[C@@H](O[C@H]2O[C@H](CO)[C@@H](O)[C@H](O)[C@H]2O)[C@H](O)[C@@H](O)CN1CCc1ccccc1` [Example 6, 4-O-alpha-D-Glucopyranosyl-N-(beta-phenylethyl)moranoline], the “Inhibitory Rate (%) for increase in ΔAUC of blood glucose” value in data set [3] was determined as 69.9%. Besides, the “IC50, Maltase” value in data set [1] is 192.5 µg/mL (≈ 448 µM). In data set [2], this molecule showed an IC50 of 71.7 µM.
